Measurements published in PubChem BioAssay AID1552 (Sanford-Burnham Center for Chemical Genomics, 2009).
Active and inactive are the calls of the source. The rule behind the calls is not given here.

The compounds below were run against Ubiquitin-conjugating enzyme E2 N (Homo sapiens) (UniProt P61088) (assay: UBE2N binders by NMR, biophysical, purified protein (AID 1552)). Conditions: NMR binding to purified UBE2N.
Ubiquitin-conjugating enzyme E2 N (Homo sapiens), sequence (P61088 whole entry, looked up): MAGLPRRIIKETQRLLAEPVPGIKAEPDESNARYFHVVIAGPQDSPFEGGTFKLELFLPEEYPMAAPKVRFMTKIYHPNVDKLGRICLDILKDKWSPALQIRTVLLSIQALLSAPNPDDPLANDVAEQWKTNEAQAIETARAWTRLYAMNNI

SMILES | Kd
Nc1oncc1-c1ccccn1 | > 4 mM (inactive)
O=C1c2cccnc2C(=O)N1Cc1ccc2c(c1)OCO2 | > 4 mM (inactive)
Cc1cc(NC(=O)NCCCSc2nncn2C)no1 | > 4 mM (inactive)
S=c1oc(-c2ccncc2)nn1CCc1ccncc1 | > 4 mM (inactive)
CSc1ccc(C2NC(=O)CCC2[N+](=O)[O-])cc1 (stereo unspecified) | > 4 mM (inactive)
O=C(O)c1ccc2c(c1)OCCCO2 | > 4 mM (inactive)
Cc1nnc(N2CCc3ccccc3C2)[nH]c1=O | > 4 mM (inactive)
COc1ccc(-c2cc(=O)c3cc(OC)ccc3o2)cc1 | > 4 mM (inactive)
NC(=S)CN1CCCC1=O | > 4 mM (inactive)
COc1cc(O)c2c(=O)c(O)c(-c3ccc(O)c(O)c3)oc2c1 | > 4 mM (inactive)
O=C(O)c1ccccc1C(=O)NCC1CCCO1 (stereo unspecified) | > 4 mM (inactive)
CCCCCC(=O)Cc1cc(O)cc(O)c1C(=O)Oc1cc(CC(=O)CCCCC)c(C(=O)O)c(OC)c1 | > 4 mM (inactive)
COc1cc(O)c(C(C)=O)c(OC)c1 | > 4 mM (inactive)
FC(F)(F)c1cc(-c2ccco2)nc(N2CCOCC2)n1 | > 4 mM (inactive)
O=C1CSC(=Nc2ccccc2)N1 | > 4 mM (inactive)
O=c1[nH]c(O)c(C=NC2CC2)c(=O)[nH]1 | > 4 mM (inactive)
Cn1nc(C(=O)Nc2cccnc2)cc1Cl | > 4 mM (inactive)
CCN(CC)c1nc2n(c(=O)n1)CCO2 | > 4 mM (inactive)
Cc1ccccc1NC(=O)N1CCOCC1 | > 4 mM (inactive)
Cn1ncc(C(=O)O)c1-c1ccccc1 | > 4 mM (inactive)
S=C(c1ccc2c(c1)OCO2)N1CCCC1 | > 4 mM (inactive)

SMILES | Kd
O=C(O)C(Cc1cnc[nH]1)N1C(=O)c2ccccc2C1=O (stereo unspecified) | > 4 mM (inactive)
Nc1ncnc2nc(SCCN3CCCCC3)[nH]c12 | > 4 mM (inactive)
O=C1CCC(c2cccs2)=NN1 | > 4 mM (inactive)
O=C(CSc1ncn[nH]1)c1ccc2c(c1)OCO2 | > 4 mM (inactive)
O=C(NC1CSCC1O)c1ccccc1 (stereo unspecified) | > 4 mM (inactive)
Cc1nc(SCC#N)c2c3c(sc2n1)CCC3 | > 4 mM (inactive)
O=c1[nH]nnc2sc3c(c12)CCCC3 | > 4 mM (inactive)
Cc1cc(C(F)(F)F)n2nc(C(=O)O)c(Cl)c2n1 | > 4 mM (inactive)
C=CCCCCCCCCCCCc1ccco1 | > 4 mM (inactive)
NC(=O)CCn1cnc2ccccc21 | > 4 mM (inactive)
Nc1cc(N)nc(SCc2ccccc2)n1 | > 4 mM (inactive)
CCOC(=O)C1=C(O)CCN(C)C1 | > 4 mM (inactive)
O=C(O)CCC1NCC2CC1CN1CCCCC21 (stereo unspecified) | > 4 mM (inactive)
O=S(=O)(NCc1ccco1)N1CCOCC1 | > 4 mM (inactive)
CC(=O)Nc1ccc(NC(=O)c2ccnn2C)cc1 | > 4 mM (inactive)
Cc1cc2c(nn1)CCc1nonc1-2 | > 4 mM (inactive)
NC(=O)c1ccccc1N=Cc1ccco1 | > 4 mM (inactive)
NCc1ccc(-n2cccc2)cc1 | > 4 mM (inactive)
Cc1ccc(C(=O)Nc2nnc(-c3ccncc3)s2)o1 | > 4 mM (inactive)
NCCc1c[nH]c2ccccc12 | > 4 mM (inactive)
COc1cc(/C=C/C(=O)O)ccc1O | > 4 mM (inactive)

SMILES | Kd
O=C1NC(=O)/C(=C\c2ccco2)S1 | > 4 mM (inactive)
Cc1cc(C(=O)NCc2ccccc2Br)no1 | > 4 mM (inactive)
O=S(=O)(c1cccc2cccnc12)N1CCOCC1 | > 4 mM (inactive)
CS(=O)(=O)N1CCC(C(=O)NC2CCCC2)CC1 | > 4 mM (inactive)
CC(=O)Nc1ccc(C(=O)NC2CCSC2=O)cc1 (stereo unspecified) | > 4 mM (inactive)
Cc1csc2nc(N)nn12 | > 4 mM (inactive)
NC(=O)C1CCN(c2nccc(C(F)(F)F)n2)CC1 | > 4 mM (inactive)
COc1cccc2c(=O)n(CC(N)=O)ccc12 | > 4 mM (inactive)
C=CCCCCCCCCCCCC(O)CC(O)COC(C)=O (stereo unspecified) (tested in a mixture with another compound) | > 4 mM (inactive)
O=C1CSC(=Nc2cccc(C(F)(F)F)c2)N1 | > 4 mM (inactive)
COC(=O)c1noc(C)c1C(C)=O | > 4 mM (inactive)
NC(=O)CN1CC(=O)NC(=O)C1 | > 4 mM (inactive)
N#CCCn1c(=O)oc2ccccc21 | > 4 mM (inactive)
COCC(=O)Nc1ccc(F)cc1F | > 4 mM (inactive)
Cc1cccnc1NC1=NCC(C)S1 (stereo unspecified) | > 4 mM (inactive)
NC1=NC(=O)/C(=C/c2cccc([N+](=O)[O-])c2)S1 | > 4 mM (inactive)
CN(c1ccccc1C(=O)N1CCCC1)S(C)(=O)=O | > 4 mM (inactive)
OCc1ccccc1CN1CCOCC1 | > 4 mM (inactive)
Cn1c(CNc2ccccc2)cc(=O)n(C)c1=O | > 4 mM (inactive)
